The record followed here is ChEMBL document CHEMBL4321852, “Structure-Based and Property-Driven Optimization of N-Aryl Imidazoles toward Potent and Selective Oral RORγt Inhibitors” (J Med Chem, 2019).

The target of data set [1] is T1, Nuclear receptor ROR-gamma (Homo sapiens, UniProt P51449).
T1 sequence (P51449 whole entry): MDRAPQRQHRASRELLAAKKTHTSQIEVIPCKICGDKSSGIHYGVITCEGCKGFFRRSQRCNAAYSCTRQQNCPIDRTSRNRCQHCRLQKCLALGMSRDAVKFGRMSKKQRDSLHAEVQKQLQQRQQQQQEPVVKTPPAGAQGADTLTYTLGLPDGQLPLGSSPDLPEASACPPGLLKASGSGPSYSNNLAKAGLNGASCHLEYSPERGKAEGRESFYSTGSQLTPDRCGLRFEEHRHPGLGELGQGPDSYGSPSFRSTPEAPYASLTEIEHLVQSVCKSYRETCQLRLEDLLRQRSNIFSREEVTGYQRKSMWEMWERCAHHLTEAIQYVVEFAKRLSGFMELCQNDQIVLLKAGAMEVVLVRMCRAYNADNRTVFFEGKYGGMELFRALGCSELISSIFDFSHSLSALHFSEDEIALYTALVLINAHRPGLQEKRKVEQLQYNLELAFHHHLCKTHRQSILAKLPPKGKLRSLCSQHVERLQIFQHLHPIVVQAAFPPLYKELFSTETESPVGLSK
Kind of data set: Inhibition of Gal4-tagged RORgammat LBD (unknown origin) by cell based luciferase reporter gene assay. (In general: Reporter assays use an easily measured gene product as a stand-in for the process of interest.)

The nature of data set [2]: Distribution coefficient of the compound, high-throughput logD using octanol-buffer at pH 7.4 by LC-MS/MS analysis shake flask method. The class given is physicochemical.
The target of data set [3] is T1, Nuclear receptor ROR-gamma. The data set can be described thus: Displacement of RIP140 cofactor peptide from human His6-tagged RORgammat LBD (264 to 518 residues) by TR-FRET assay. A general note: In TR-FRET formats the signal depends on donor and acceptor labels being close together.
Data set [4] in a line: Dose normalized Cmax in DA rat at 5 mg/kg, po. To be noted: in vivo. It counts as ADME, organism-based.
Data set [5] deals with T2, Nuclear receptor subfamily 1 group I member 2 (Homo sapiens, UniProt O75469).
T2 sequence (O75469 whole entry): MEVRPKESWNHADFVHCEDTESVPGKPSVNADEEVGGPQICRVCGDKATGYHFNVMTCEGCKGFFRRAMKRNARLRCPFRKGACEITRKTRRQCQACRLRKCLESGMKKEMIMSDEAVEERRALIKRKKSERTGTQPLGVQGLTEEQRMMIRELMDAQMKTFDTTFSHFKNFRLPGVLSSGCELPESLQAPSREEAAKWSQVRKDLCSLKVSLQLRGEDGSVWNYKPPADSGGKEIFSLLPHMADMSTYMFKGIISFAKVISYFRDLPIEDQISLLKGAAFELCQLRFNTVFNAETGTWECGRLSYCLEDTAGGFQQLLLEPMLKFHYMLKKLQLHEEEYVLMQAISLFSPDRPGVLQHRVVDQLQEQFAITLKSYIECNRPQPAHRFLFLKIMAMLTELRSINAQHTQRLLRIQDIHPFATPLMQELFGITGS
The data set can be described thus: Inhibition of Gal4-tagged PXR LBD (unknown origin) by cell based luciferase reporter gene assay.

Data set [6] addresses T1, Nuclear receptor ROR-gamma. The data set can be described thus: Inhibition of human GAL4-DBD fused RORgammat LBD expressed in human Jurkat cells assessed as inhibition of receptor transactivation after 24 hrs by luciferase reporter gene assay. The class given is cell-based.
The target of another data set is T3, Progesterone receptor (Homo sapiens, UniProt P06401).
T3 sequence (P06401 whole entry): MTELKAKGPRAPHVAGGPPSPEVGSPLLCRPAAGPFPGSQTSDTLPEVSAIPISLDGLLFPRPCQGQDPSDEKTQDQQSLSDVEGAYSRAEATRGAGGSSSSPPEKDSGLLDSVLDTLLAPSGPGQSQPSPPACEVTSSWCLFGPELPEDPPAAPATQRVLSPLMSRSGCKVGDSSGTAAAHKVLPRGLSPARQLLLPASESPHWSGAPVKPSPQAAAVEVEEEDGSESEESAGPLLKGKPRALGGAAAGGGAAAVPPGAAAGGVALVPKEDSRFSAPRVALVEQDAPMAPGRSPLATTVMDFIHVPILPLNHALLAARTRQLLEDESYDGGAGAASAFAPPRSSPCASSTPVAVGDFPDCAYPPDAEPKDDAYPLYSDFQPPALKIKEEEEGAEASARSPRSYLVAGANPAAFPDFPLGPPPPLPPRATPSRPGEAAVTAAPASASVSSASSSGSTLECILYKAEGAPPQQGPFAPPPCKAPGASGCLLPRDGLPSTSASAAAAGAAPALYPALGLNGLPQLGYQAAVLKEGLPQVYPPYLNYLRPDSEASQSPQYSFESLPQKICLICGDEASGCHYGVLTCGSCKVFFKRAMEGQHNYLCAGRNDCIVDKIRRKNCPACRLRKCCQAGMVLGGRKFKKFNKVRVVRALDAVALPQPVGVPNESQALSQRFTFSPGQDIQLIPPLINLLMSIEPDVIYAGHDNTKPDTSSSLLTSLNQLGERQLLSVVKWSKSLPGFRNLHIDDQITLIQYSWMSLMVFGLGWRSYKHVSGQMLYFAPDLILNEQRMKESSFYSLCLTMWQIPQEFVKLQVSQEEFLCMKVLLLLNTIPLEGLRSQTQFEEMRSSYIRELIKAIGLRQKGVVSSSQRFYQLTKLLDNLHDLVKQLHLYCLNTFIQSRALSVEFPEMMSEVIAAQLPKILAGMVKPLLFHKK
The data set can be described thus: Inhibition of Gal4-tagged PR LBD (unknown origin) by cell based luciferase reporter gene assay.

A further data set deals with Rattus norvegicus. Kind of data set: Anti-inflammatory activity in mBSA/CFA-immunized Lewis rat delayed-type hypersensitivity model assessed as reduction in ear swelling at 1 to 15 mg/kg, po via gavage administered twice daily for 2 days treated prior to mBSA/CFA challenge measured after up to 50 hrs. It counts as functional, organism-based.
The next data set addresses T4, Estrogen receptor (Homo sapiens, UniProt P03372).
T4 sequence (P03372 whole entry): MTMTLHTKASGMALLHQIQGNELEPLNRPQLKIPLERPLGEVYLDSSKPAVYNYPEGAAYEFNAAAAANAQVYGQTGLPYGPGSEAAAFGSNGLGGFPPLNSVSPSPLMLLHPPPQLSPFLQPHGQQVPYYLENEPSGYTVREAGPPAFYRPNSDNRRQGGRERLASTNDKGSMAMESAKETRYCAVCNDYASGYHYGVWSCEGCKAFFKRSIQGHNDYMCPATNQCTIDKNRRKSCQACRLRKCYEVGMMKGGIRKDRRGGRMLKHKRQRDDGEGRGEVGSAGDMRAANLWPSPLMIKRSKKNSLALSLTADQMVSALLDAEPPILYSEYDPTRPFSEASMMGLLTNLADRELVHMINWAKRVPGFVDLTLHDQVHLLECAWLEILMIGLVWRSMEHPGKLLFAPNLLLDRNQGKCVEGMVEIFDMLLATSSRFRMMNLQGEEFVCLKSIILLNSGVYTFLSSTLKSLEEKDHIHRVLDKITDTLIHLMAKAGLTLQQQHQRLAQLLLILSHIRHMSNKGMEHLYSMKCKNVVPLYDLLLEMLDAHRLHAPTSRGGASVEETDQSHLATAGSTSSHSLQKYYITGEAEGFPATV
The data set can be described thus: Inhibition of Gal4-tagged ERalpha LBD (unknown origin) by cell based luciferase reporter gene assay.

By IC50 is commonly meant the concentration that inhibits the measured activity by half. The logD is the decadic logarithm of the distribution of all forms, ionised or not, between an organic phase and buffer at a given pH. For the compound `Cc1c(C2(C(F)(F)F)CC2)nc(C2CC2)n1-c1c(Cl)ccc(N2CC3(CC(C(=O)O)C3)C2)c1Cl` (single isomer, unassigned; atropisomer), the IC50 in data set [1] was 151 nM; in data set [3] it was 5 nM; in [5], greater than 10000 nM; in data set [6], 151 nM; at Progesterone receptor, greater than 10000 nM; against Estrogen receptor, greater than 10000 nM. The logD in [2] is 2. In addition, the Cmax/dose in [4] turned out to be 2448 nM. Moreover, in the data set with Rattus norvegicus, the Activity entry was “Dose-dependent effect”.
